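Cells were grown in 96-well plates and exposed to each compound for 48 hours at five concentrations; endpoints were interpolated linearly between bracketing concentrations, or set to the highest concentration if not reached. GI50: concentration for 50% inhibition of growth. TGI: concentration producing complete growth inhibition.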

The results in this text go back to PubChem BioAssay (NCI).

Holding throughout (test): DTP human tumour cell line panel, 48 h
Experiment [1] concerns ACHN renal.
The test system of experiment [2] is DU-145 prostate.
Experiment [3] relates to HOP-92 NSCLC.
In experiment [4] the test system is HT29 colon.
The test system of experiment [5] is K-562 leukemia.
Experiment [6] has as its system KM12 colon.
Experiment [7] has as its system MALME-3M melanoma.
Experiment [8] has as its system PC-3 prostate.
For experiment [9], the system named is RPMI-8226 leukemia.
The subject of experiment [10] is RXF 393 renal.
Experiment [11] has as its system SK-MEL-2 melanoma.
Experiment [12] relates to SK-OV-3 ovarian.
Experiment [13] relates to SNB-75 CNS.
The test system of experiment [14] is U251 CNS.
For experiment [15], the system named is UACC-257 melanoma.
Experiment [16] concerns HOP-62 NSCLC.
The test system of experiment [17] is SN12C renal.
Experiment [18] relates to SNB-19 CNS.

In the case of `Nc1c2ccccc2nc2ccc3c(=O)cc(-c4ccccc4)oc3c12`, the TGI stood at 2.39 µM in experiment [1]; 3.74 µM in [2]; 2.59 µM in experiment [3]; 1.86 µM in [4]; 0.326 µM in [5]; 2.16 µM in [6]. The TGI stood at 3.23 µM in experiment [7]; 2.7 µM in [8]; 0.697 µM in experiment [9]; 2.91 µM in experiment [10]; 3.65 µM in experiment [11]; 3.48 µM in [12]. In addition, the values for the TGI in [13], in [14] and in experiment [15] were 3.58 µM, 1.46 µM and 3.39 µM, respectively.

On to `O=C1c2ccccc2CN1c1ccc(OCCN2CCCCC2)cc1`, for which the TGI in experiment [1], in experiment [2], in experiment [16], in experiment [3], in experiment [4] and in experiment [5] was over 10 µM throughout. The concentration for total growth inhibition (TGI) in experiment [6], in [7], in experiment [8], in experiment [9], in experiment [10] and in [11] was over 10 µM throughout. For the same molecule, the total growth inhibition concentration (TGI) in [12], in experiment [17], in [18], in [13], in experiment [14] and in [15] was over 10 µM in each case.

Turning to `Nn1c(CCCCCCCCc2nnc(COc3ccc4ccccc4c3O)n2N)nnc1COc1ccc2ccccc2c1O`, the concentration for total growth inhibition (TGI) was over 100 µM in experiment [1]; over 100 µM in experiment [2]; 60 µM in experiment [3]; over 100 µM in [4]; over 100 µM in experiment [5]; 49.4 µM in [6]. Also, the concentration for total growth inhibition (TGI) in [7] is over 100 µM; in experiment [8] it was over 100 µM; in experiment [9] it was 99.2 µM; in [10] it was 80.3 µM; in [11], over 100 µM; in [12] it was over 100 µM. Further, the TGI in experiment [17], in experiment [18], in experiment [13], in experiment [14] and in experiment [15] was over 100 µM throughout.

As for `CCOC(=O)NC1C2CC(=O)OC(O2)C1OC(C)=O` (stereo not given), the concentration for total growth inhibition (TGI) in experiment [1], in experiment [2], in experiment [16], in experiment [3], in [4] and in [5] was over 100 µM each time. Besides, the concentration for total growth inhibition (TGI) in [6], in experiment [7], in experiment [8], in experiment [9], in experiment [10] and in experiment [11] was over 100 µM throughout. Moreover, the TGI in experiment [12], in experiment [17], in [18], in experiment [13], in [14] and in experiment [15] was over 100 µM each time. The GI50 in experiment [2] and in experiment [8] was over 100 µM in each case.

On to `CCN(CC)c1ccc2cc(C(N)=S)c(=N)oc2c1`, for which the concentration for total growth inhibition (TGI) in experiment [1], in experiment [2], in experiment [16], in experiment [3], in experiment [4] and in experiment [5] was over 100 µM each time. Besides, the concentration for total growth inhibition (TGI) in experiment [6], in [7], in experiment [8], in [9], in experiment [10] and in [11] was over 100 µM throughout. Also, the TGI in experiment [12], in experiment [17], in [18], in experiment [13], in experiment [14] and in [15] was over 100 µM throughout.

`O=c1[nH]/c(=C/c2ccc(OCc3ccccc3)cn2)c(=O)[nH]/c1=C/c1ccc(F)cc1`: the TGI in [1] was over 76.2 µM; in experiment [2], over 34.8 µM; in [16] it was over 35.5 µM; in experiment [3], over 37.7 µM; in experiment [4], over 32.4 µM; in [5] it was over 36.4 µM. The TGI is over 40.9 µM in experiment [6]; over 51.8 µM in experiment [7]; over 45.4 µM in experiment [8]; 10.8 µM in experiment [9]; 1.95 µM in experiment [10]; over 52.2 µM in [11]. The TGI in [12] was over 37.8 µM; in experiment [17] it was over 50.3 µM; in [18], over 34.2 µM; in experiment [13] it was 4.73 µM; in experiment [14], over 35.7 µM; in experiment [15], 58.4 µM.

Regarding `COc1c(OC(C)C)c(OC(C)C)c2oc(=O)n3c2c1C(c1ccccc1-n1c(C)ccc1C)C=C3` (stereo not given), the total growth inhibition concentration (TGI) in experiment [1], in experiment [2], in [16], in experiment [3], in experiment [4] and in [5] was over 100 µM each time. Further, the total growth inhibition concentration (TGI) in experiment [6] is over 100 µM; in experiment [7] it was 50 µM; in experiment [8] it was over 100 µM; in experiment [9], over 100 µM; in [10], 62.5 µM; in experiment [11], over 100 µM. Moreover, the TGI in experiment [12], in experiment [17], in experiment [18], in experiment [13], in experiment [14] and in experiment [15] was over 100 µM each time.

As for `Cc1cccc2c1C(=O)[C@](C)([C@]1(C)Nc3cccc(C)c3C1=O)N2`, the total growth inhibition concentration (TGI) in [1] is over 100 µM; in experiment [2], over 100 µM; in experiment [16] it was 84.9 µM; in [3], 75.7 µM; in experiment [4], over 100 µM; in [5], over 100 µM. For the same molecule, the TGI in experiment [6] was over 100 µM; in experiment [7] it was over 100 µM; in experiment [8] it was over 100 µM; in [9], 53.7 µM; in experiment [10], over 100 µM; in experiment [11], 69.2 µM. Also, the TGI was 76.6 µM in [12]; over 100 µM in experiment [17]; over 100 µM in experiment [18]; 41.2 µM in experiment [13]; over 100 µM in [14]; over 100 µM in experiment [15].

Regarding `CC(O)c1cc2c(s1)C(=O)c1ccsc1C2=O` (stereo not given), the TGI in [1] is 0.267 µM; in [2] it was 0.0947 µM; in [16] it was 0.283 µM; in [3] it was 0.967 µM; in experiment [5], 0.412 µM; in [6], 1.2 µM. Besides, the total growth inhibition concentration (TGI) amounted to 0.0449 µM in [7]; 0.158 µM in experiment [8]; 0.416 µM in [9]; 0.56 µM in experiment [10]; 0.264 µM in experiment [11]; 5.46 µM in experiment [12]. For the same molecule, the TGI in [17] turned out to be 0.238 µM; in experiment [18], 0.553 µM; in experiment [13], 0.166 µM; in experiment [14] it was 0.415 µM; in [15], 0.0688 µM.

As for `CCOC(=O)CCC(NC(=O)c1ccc(Oc2nc3ccccc3nc2-c2ccccc2)cc1)C(=O)OCC` (stereo not given), the total growth inhibition concentration (TGI) in [1] is over 66.9 µM; in experiment [2], over 100 µM; in [16] it was 45.1 µM; in experiment [3], 13.4 µM; in [4], 10.7 µM; in experiment [5], over 100 µM. Further, the total growth inhibition concentration (TGI) was over 100 µM in experiment [6]; 33 µM in experiment [7]; over 100 µM in [8]; over 100 µM in [9]; over 76.2 µM in experiment [10]; over 93 µM in experiment [11]. For the same molecule, the TGI was over 67.6 µM in [12]; over 100 µM in experiment [17]; over 77 µM in experiment [18]; 26.2 µM in experiment [13]; over 94 µM in experiment [14]; over 100 µM in experiment [15].

In the case of `O=C1CCCCCCCCCCC1CCCCCBr` (stereo not given), the TGI was 84 µM in experiment [1]; over 100 µM in experiment [2]; over 100 µM in experiment [16]; 67.6 µM in [3]; 95.6 µM in [4]; 34.5 µM in experiment [5]. The concentration for total growth inhibition (TGI) was 53.7 µM in [6]; 38.4 µM in experiment [7]; over 100 µM in experiment [8]; 43.8 µM in experiment [10]; 32.4 µM in experiment [11]; over 100 µM in experiment [12]. Further, the concentration for total growth inhibition (TGI) was 43.1 µM in experiment [17]; 64.7 µM in experiment [18]; 49.8 µM in [13]; 43.3 µM in [14]; 58.5 µM in [15].

Consider `CN=c1c2c(c3[nH]c4ccccc4c4cnc1c34)NCCC2=O`, for which the concentration for total growth inhibition (TGI) in experiment [1], in experiment [2], in experiment [16], in experiment [3], in [4] and in [5] was over 10 µM in each case. Also, the TGI in experiment [6], in [7], in [8], in [9], in experiment [10] and in experiment [11] was over 10 µM in each case. Besides, the concentration for total growth inhibition (TGI) in [12], in experiment [17], in experiment [18], in experiment [13], in experiment [14] and in [15] was over 10 µM each time.

As for `Clc1ccc(OCc2nnc(CCCCCCCCc3nnc(COc4ccc(Cl)cc4Cl)n3Nc3ccccc3)n2Nc2ccccc2)c(Cl)c1`, the total growth inhibition concentration (TGI) is 46.1 µM in [1]; over 62.7 µM in experiment [2]; 18.2 µM in experiment [16]; 46.3 µM in experiment [3]; 35.8 µM in [4]; 25.6 µM in experiment [6]. The TGI came to 40.6 µM in experiment [7]; 34.8 µM in [8]; 16.9 µM in experiment [9]; 40.8 µM in [10]; 24.8 µM in experiment [11]; 39.8 µM in [12]. Besides, the concentration for total growth inhibition (TGI) is 38.1 µM in [17]; over 61.9 µM in experiment [18]; 70.3 µM in [13]; 27.1 µM in experiment [14]; 36.2 µM in experiment [15].

Take `C1CCCCC2(CCCCCCCCC3(CCC1)OCCO3)OCCO2`: the concentration for total growth inhibition (TGI) in [1], in experiment [2], in experiment [16], in experiment [3], in [4] and in experiment [5] was over 100 µM each time. The total growth inhibition concentration (TGI) in experiment [6], in [7], in experiment [8], in [10], in experiment [11] and in experiment [12] was over 100 µM each time. Further, the total growth inhibition concentration (TGI) in experiment [17], in experiment [18], in [13], in experiment [14] and in experiment [15] was over 100 µM throughout.

Consider `CN(C)CCCNc1ccc2c(=O)n(CCN(C)C)c(=O)n3c4ccccc4c(=O)c1c23`, for which the total growth inhibition concentration (TGI) in [1] was 1.47 µM; in experiment [2], 0.511 µM; in experiment [16], 5.91 µM; in [3] it was 7.79 µM; in [4], 0.907 µM; in experiment [6], 1.4 µM. Besides, the TGI in [7] worked out at 3.99 µM; in experiment [8] it was 1.81 µM; in [9], 0.595 µM; in experiment [10], 2.58 µM; in experiment [11] it was 2.52 µM; in [12], 4.9 µM. Moreover, the concentration for total growth inhibition (TGI) was 0.941 µM in experiment [17]; 3.02 µM in [18]; 7.51 µM in experiment [13]; 2.15 µM in [14]; 2.05 µM in [15].

`COc1cc(S(=O)(=O)Nc2nc(-c3ccc(N4C(=O)/C(=C/C=C/c5ccccc5)N=C4c4ccccc4)cc3)cs2)ccc1Cl`: the TGI in experiment [1], in experiment [2], in [16], in experiment [3], in [4] and in [5] was over 100 µM throughout. Besides, the TGI in experiment [6], in experiment [7], in experiment [8], in experiment [10], in experiment [11] and in [12] was over 100 µM throughout. The TGI in [17], in experiment [18], in experiment [13], in [14] and in experiment [15] was over 100 µM each time.
